# Columns and labels:
# Assay type in all cases: cell-based, human
# [1] = test system: SS RBC adhesion to HUVECs; assay: Flow chamber adhesion of SS RBCs to non-activated HUVECs; details: for mean decrease in SS RBC adhesion after 30 min exposure: 30 min vs 1 min epinephrine
# Protocol: Cells were then washed three times with 5 ml PBS with Ca^2+ and Mg^2+. Prior to adhesion assays, washed treated SS RBCs were labeled with PKH 26 red fluorescent cell linker kit (Sigma-Aldrich, St. Louis, Mo.), following the manufacturer's instructions. […] The flow chamber was mounted on the stage of an inverted phase contrast microscope (Diaphot, Nikon Inc., Melville, N.Y.) connected to a thermoplate (Tokai Hit Co., Ltd., Japan) set at 37° C. […] Before exposure to flow, a minimum of three fields at each of seven different locations along a line oriented normal to future flow were examined for the total number of fluorescent cells. Fluid flow (HBSS with Ca^2+, Mg^2+) was then started using a calibrated syringe pump. After exposure to flow, the fields were again examined and the number of adherent cells counted. The fraction of adherent cells was presented as (number of cells attached after exposure to flow)/(cells present per field before flow). The wall shear stress was calculated as: [formula] τw=wall shear stress (dyne/cm^2); Q=volumetric flow rate (cm^3/s); μ is media viscosity, w is the width of the flow channel, and H(x) is the height of the flow chamber as a function of position along the microscope slide. Several investigators have shown that blood flow in small vessels may be continuous, with shear stresses of 1-2 dynes/cm^2, or flow may be intermittent. Our data were obtained using both intermittent and continuous flow conditions.
# [2] = test system: ICAM-4 (LW) phosphorylation; assay: 32P labeling, ICAM-4 immunoprecipitation and detection of phosphorylation in SS RBCs
# Protocol: Cells were then washed 4 times. ICAM-4 protein immunoprecipitation, and total and phospho-ICAM-4 detection were performed as previously described in detail.^4 To further confirm that the immunoprecipitates were specific for ICAM-4, anti-ICAM-4 mAb and the negative control immunoglobulin P3 were used to immunoprecipitate ICAM-4 from non-radiolabeled SS RBCs incubated in the presence or absence of epinephrine. Blots were then immunostained with anti-ICAM-4 mAb.
# [3] = test system: SS RBC membrane ghost phosphopeptides; assay: Label-free quantitative phosphoproteomic analysis of SS RBC membrane ghosts
# Protocol: (§1) Ghosted RBCs were spun at 14,000 rpm for 15 min at 4° C. to pellet membranes. Membrane pellets were washed with 1 mL 50 mM ammonium bicarbonate (pH 8.0) with vortexing and were then spun at 14,000 rpm for 30 min at 4° C. The supernatant was then removed and 500 μL of 50 mM ammonium bicarbonate with μL 0.2% acid-labile surfactant (ALS-1) in 50 mM ammonium bicarbonate (pH 8.0) was added. Samples were subjected to probe sonication three-times for 5 sec with cooling on ice between and insoluble material was cleared by centrifugation at 14,000 rpm for 30 mins at 4° C. Samples were normalized to approximately 2 μg/μl following a micro-Bradford assay (Pierce Bioscience), and were reduced with a final concentration of 10 mM dithiothreitol at 80° C. for 20 min. Samples were then alkylated with a final concentration of 20 mM iodoacetamide at room temperature for 45 min and trypsin was added to a final ratio of 1-to-50 (w/w) enzyme-to-protein and allowed to digest at 37° C. for 18 hr. To remove ALS-1, samples were acidified to pH 2.0 with neat TFA, incubated at 60° C. for 2 hrs and spun at 14,000 rpm to remove hydrolyzed ALS-1. Samples were either subjected directly to LC-MS analysis or subjected to a TiO2 based phosphopeptide enriched protocol.
# (§2) To enrich for phosphorylated peptides prior to LC-MS analysis, either 1,125 μg and 970 μg of total digested protein from RBC ghosts co-incubated with recombinant active ERK2 experiments and experiments using epinephrine-treated cells, respectively, were brought to near dryness using vacuum centrifugation and then resuspended in 200 μL of 80% acetonitrile, 1% TFA, 50 mg/ml MassPrep Enhancer (pH 2.5) (Waters Corp. Milford, Mass.). Samples were loaded onto an in-house packed TiO2 spin column (Protea Biosciences) with a 562 μg or 485 μg binding capacity for active ERK2 treated or epinephrine treated experiments, respectively. Samples were washed twice with 200 μL 80% acetonitrile, 1% TFA, 50 mg/ml MassPrep Enhancer (pH 2.5) followed by two washes with 200 μL 80% acetonitrile, 1% TFA (pH 2.5). Retained peptides were eluted twice with 100 μL 20% acetonitrile, 5% aqueous ammonia (pH 10.0), acidified to pH 3 with neat formic acid and then brought to dryness using vacuum centrifugation. Prior to LC-MS analysis, each sample was resuspended in 20 μL 2% acetonitrile, 0.1% TFA, 25 mM citric acid (pH 2.5).
# Chromatographic separation of phosphopeptide enriched or non-enriched samples was performed on a Waters NanoAquity UPLC equipped with a 1.7 μm BEH130 C1875 μm I.D.×250 mm reversed-phase column. The mobile phase consisted of (A) 0.1% formic acid in water and (B) 0.1% formic acid in acetonitrile. Five μL injections of each sample were trapped for 5 min on a 5 μm Symmetry C18 180 μm I.D.×20 mm column at 20 μl/min in 99.9% A. The analytical column was then switched in-line and the mobile phase was held for 5 min at 5% B before applying a linear elution gradient of 5% B to 40% B or 5% B to 30% B over 90 min at 300 nL/min for ERK2 treated experiments or epinephrine treated experiments, respectively. The analytical column was connected to fused silica PicoTip emitter (New Objective, Cambridge, Mass.) with a 10 μm tip orifice and coupled to the mass spectrometer through an electrospray interface.
# (§3) MS data from each phosphopeptide enriched sample was acquired on a Thermo LTQ-Orbitrap XL mass spectrometer operating in positive-ion mode with an electrospray voltage of 2.0 kV with real-time lockmass correction on ambiant polycyclodimethylsiloxane (m/z 445.120025) enabled. The instrument was set to acquire a precursor MS scan from m/z 400-2000 with r=60,000 at m/z 400 and a target AGC setting of 1e6 ions. Each sample was analyzed four-times, one of which was used for additional qualitative identifications only and was not included in the quantitative analysis, with product ions above a threshold of 500 counts were acquired for the top 5 most intense ions in the linear ion trap. […]
# [4] = test system: AA RBC membrane ghost phosphopeptides; assay: Label-free quantitative phosphoproteomic analysis of normal (AA) RBC membrane ghosts
# Protocol: as §1
# as §2, with “Prior to LC-MS analysis, each sample was resuspended in 20 μL 2% acetonitrile, 0.1% TFA, 25 mM citric acid (pH 2.5).” left out
# as §3, with “The instrument was set to acquire a precursor MS scan from m/z 400-2000 with r=60,000 at m/z 400 and a target AGC setting of 1e6 ions.” left out
# [5] = shear stress 2 dynes/cm^2, intermittent flow
# [6] = SS RBCs, epinephrine 30 min vs 1 min
# [7] = SS RBCs vs SS RBCs treated with U0126
SMILES,mean decrease in SS RBC adhesion after 30 min exposure ([1]; constant flow),mean decrease in SS RBC adhesion after 30 min exposure ([1]; intermittent flow),"effect on SS RBC adhesion to HUVECs [1, 5]",ICAM-4 phosphorylation over sham-treated cells ([2]; epinephrine 1 min in the presence of SPI (FIG. 4F)),ICAM-4 phosphorylation vs 1 min exposure ([2]; epinephrine 30 min in the presence of SPI),increase in ICAM-4 phosphorylation over sham-treated SS RBCs ([2]; epinephrine in the presence of SPI),"change in phosphorylation of serine 310 within CAP1 [3, 6]","change in phosphorylation of threonine 307 within CAP1 [3, 6]","change in phosphorylation of the CAP1 serine ([4]; AA RBCs, epinephrine 30 min vs 1 min)",inhibition of SS RBC adhesion to non-activated HUVECs vs sham-treated SS RBCs ([1]; U0126 alone),"inhibition of forskolin-increased SS RBC adhesion to HUVECs ([1]; shear stress 2 dynes/cm^2, compared to forskolin alone)","effect on epinephrine-induced SS RBC adhesion to HUVECs [1, 5]",effect on combined effect of epinephrine and SPI on ICAM-4 phosphorylation ([2]; SS RBCs preincubated with inhibitor),change of Ser540/Ser542 doubly phosphorylated peptide within protein 4.1 ([3]; SS RBCs treated with U0126),"unique RBC membrane phosphopeptides significantly down-regulated [3, 7]","unique phosphoproteins carrying the down-regulated phosphopeptides [3, 7]",effect on Ser540/Ser542 doubly phosphorylated peptide within protein 4.1 ([4]; AA RBCs treated with U0126)
CNC[C@H](O)c1ccc(O)c(O)c1 [epinephrine],73±4.7%,56±1.5%,significantly up-regulated,1.84±0.15 fold,significantly diminished,7.4±1.07 fold,−4.3 fold,−1.4 fold,+1.4 fold,–,–,–,–,–,–,–,–
N#CC(=C(/N)Sc1ccccc1N)/C(C#N)=C(\N)Sc1ccccc1N [U0126],–,–,–,–,–,–,–,–,–,91±4.6%,83±4%,completely inhibited,significantly decreased,−1.7 fold,36,22,did not induce a decrease
